Results published in patent publication US6350586B2, “Method for isolating inhibitors of protease activity” (Long Island Jewish Medical Center, priority 1998, dated 2002).
One block for each molecule: values may come before it.

Key:
Type in all cases: biochemical
[1] = Elastase assay using Suc(Ala)3-nA (SANA); conditions: room temperature, 20 minutes
Protocol: Elastase assay using Suc(Ala)3-nA (SANA). The following method was used for testing PPE (CalBio-chem) activity. A 25 mM stock solution of SANA (Sigma) in dimethyl sulfoxide (Sigma), 1 mg/ml stock solution of elastase in distilled water, and 0.2 M Tris buffer pH 8.0 with 0.1% Triton X-100(Sigma) was prepared. The assay contained 12 μl of SANA and 50 μl of the enzyme sample and was made up to 200 μl with 0.2 M Tris buffer. All reactions were prepared in 96-well Falcon 3097 flat-bottom microtiter plates (Beckton Dickinson) and carried out at room temperature. The optical density of each digest was recorded for 20 min, at 30 second intervals, at 405 nm using a Bio-Whittaker microplate reader 2001 (Bio-Whittaker).
(§1) Comparison of Succinyl Elastin with SANA. The sensitivity of the succinylated elastin assay was compared to an elastase assay that uses SANA, a synthetic elastase substrate. 50 μl of 1000, 100, 10 and 1 ng/ml elastase was used to digest 100 μg of succinylated elastin and 12 μl of 12 mM SANA. The succinylated elastin digest was carried out at 37° C. for 1 hour. The SANA elastase assay was carried out at room temperature for 20 minutes. Optical densities were measured at 450 nm for succinylated elastin assay and 405 nm for SANA elastase assay. Blank reaction contained buffer/enzyme. Blank reading was subtracted from the final reaction optical density to give corrected absorbance values. Standard deviations are given in parentheses.

succinylated casein = assay: Protease assay using succinylated casein substrate with TNBSA detection; conditions: 100 μg succinylated casein, 37° C., 1 hour
Protocol: (§2) Assay Conditions. Elastase assay using succinylated elastin: A modified version of the method described in the Pierce Quanticleave™ protease assay kit II (Pierce Chemical Co.) was used for the elastase assay. The assay contained 100 μg of succinylated substrate (gelatin, elastin, or casein) and 50 μl of enzyme sample to be assayed, and the reaction was brought up to a final volume of 150 μl with BupH buffer or 50 mM sodium borate, pH 8.0 (50 mM sodium borate, pH 8.0, is a suitable substitute for BupH buffer). All reactions were prepared in 96-well Falcon 3097 flat-bottom microtiter plates (Beckton Dickinson, N.J.) The reactions were then incubated at 37° C. for 60 min. Fifty microliters of a 0.03% solution of TNBSA was then added to each reaction and left for 20 min at room temperature. The optical density of each reaction was then determined using a Bio-Whittaker microplate reader 2001 (Bio-Whittaker, Walkersville, Md.) at 450 nm. Blank reactions were also prepared which contained buffer and protease, buffer and substrate and buffer only. All sample dilutions were prepared in BupH buffer or 50 mM sodium borate buffer, pH 8.0, as were stock solutions of 1 mg/ml elastase and trypsin.
(§3) Comparison of Elastase and Trypsin Substrate Affinities. […] and 1 μg/ml of elastase and trypsin were assayed using succinylated elastin, gelatin, and casein substrate. Enzyme dilutions were prepared from a 1 mg/ml stock of trypsin and elastase in BupH buffer or 50 mM sodium borate, pH 8.0. Assays contained 50 μl enzyme and 100 μg succinylated substrate and were made up to a volume of 150 μl with BupH buffer or 50 mM sodium borate buffer, pH 8.0. Digests were incubated at 37° C. for 1 hour. All digests were prepared in duplicate and optical densities were measured at 450 nm. Blank reaction contained buffer/enzyme. Blank reading was subtracted from the final reaction optical density to give corrected absorbance values. Standard deviations are given in parentheses. The activity of elastase varies with substrate in the following order: elastin>casein>gelatin. The activity of trypsin varies with substrate in the following order: gelatin>casein>elastin. Substrate affinity was evaluated by the level of absorbance at 450 nm each protease generated with each substrate.

succinylated gelatin = assay: Protease assay using succinylated gelatin substrate with TNBSA detection; conditions: 100 μg succinylated gelatin, 37° C., 1 hour
Protocol: as §2, §3

succinylated elastin = assay: Protease assay using succinylated elastin substrate with TNBSA detection; conditions: 37° C., 1 hour; for corrected absorbance at 450 nm, substrate Elastin: 100 μg succinylated elastin
Protocol: as §2, §3, §1

corrected optical density at 405 nm, SANA ([1]; elastase 1 ng/ml): 0 | corrected optical density at 405 nm, SANA ([1]; elastase 10 ng/ml): 0 | corrected optical density at 405 nm, SANA ([1]; elastase 100 ng/ml): 0.011 (±0.004) | corrected optical density at 405 nm, SANA ([1]; elastase 1000 ng/ml): 0.129 (±0.026)
Molecule: Elastase: Porcine pancreatic elastase (PPE; 297 units/mg) (EC 3.4.21.36) purchased from CalBiochem
corrected absorbance at 450 nm, substrate Casein (succinylated casein; protease concentration 1): 0.071 | corrected absorbance at 450 nm, substrate Casein (succinylated casein; protease concentration 10): 0.28 | corrected absorbance at 450 nm, substrate Gelatin (succinylated gelatin; protease concentration 1): 0.037 | corrected absorbance at 450 nm, substrate Gelatin (succinylated gelatin; protease concentration 10): 0.120 | corrected optical density at 450 nm, Succinylated Elastin (succinylated elastin; elastase 1 ng/ml): 0.0086 (±0.003) | corrected optical density at 450 nm, Succinylated Elastin (succinylated elastin; elastase 10 ng/ml): 0.01 (±0.001) | corrected optical density at 450 nm, Succinylated Elastin (succinylated elastin; elastase 100 ng/ml): 0.015 (±0.004) | corrected optical density at 450 nm, Succinylated Elastin (succinylated elastin; elastase 1000 ng/ml): 0.054 (±0.006) | corrected absorbance at 450 nm, substrate Elastin (succinylated elastin; protease concentration 1): 0.085 | corrected absorbance at 450 nm, substrate Elastin (succinylated elastin; protease concentration 10): 0.377

B1: Trypsin: Protease from the Pierce Quanticleave protease assay kit II (13564 units/mg) (protein, UniProt P00760 24-246, looked up)
Serine protease 1: IVGGYTCGANTVPYQVSLNSGYHFCGGSLINSQWVVSAAHCYKSGIQVRLGEDNINVVEGNEQFISASKSIVHPSYNSNTLNNDIMLIKLKSAASLNSRVASISLPTSCASAGTQCLISGWGNTKSSGTSYPDVLKCLKAPILSDSSCKSAYPGQITSNMFCAGYLEGGKDSCQGDSGGPVVCSGKLQGIVSWGSGCAQKNKPGVYTKVCNYVSWIKQTIASN
corrected absorbance at 450 nm, substrate Casein (succinylated casein; protease concentration 1): 0.106 | corrected absorbance at 450 nm, substrate Casein (succinylated casein; protease concentration 10): 0.158 | corrected absorbance at 450 nm, substrate Gelatin (succinylated gelatin; protease concentration 1): 0.179 | corrected absorbance at 450 nm, substrate Gelatin (succinylated gelatin; protease concentration 10): 0.354 | corrected absorbance at 450 nm, substrate Elastin (succinylated elastin; protease concentration 1): 0.024 | corrected absorbance at 450 nm, substrate Elastin (succinylated elastin; protease concentration 10): 0.049
